Data as given in patent publication US11572590B2, “Methods for evaluating tumor cell spheroids using 3D microfluidic cell culture device” (Dana-Farber Cancer Institute, Inc., priority 2017, dated 2023).
Read-outs that look alike come from different tables or passages of the source.

What was measured:
Assay in all cases: SelectScreen Kinase Profiling, single point inhibition and IC50 for off-target kinases
Assay type in all cases: biochemical
off-target kinases [1] = target: T1, off-target kinases (Homo sapiens, UniProt Q9UL54); conditions: TAOK2 (TAO1), ZLYTE, ATP Km app
T1 sequence (Q9UL54 1-1235): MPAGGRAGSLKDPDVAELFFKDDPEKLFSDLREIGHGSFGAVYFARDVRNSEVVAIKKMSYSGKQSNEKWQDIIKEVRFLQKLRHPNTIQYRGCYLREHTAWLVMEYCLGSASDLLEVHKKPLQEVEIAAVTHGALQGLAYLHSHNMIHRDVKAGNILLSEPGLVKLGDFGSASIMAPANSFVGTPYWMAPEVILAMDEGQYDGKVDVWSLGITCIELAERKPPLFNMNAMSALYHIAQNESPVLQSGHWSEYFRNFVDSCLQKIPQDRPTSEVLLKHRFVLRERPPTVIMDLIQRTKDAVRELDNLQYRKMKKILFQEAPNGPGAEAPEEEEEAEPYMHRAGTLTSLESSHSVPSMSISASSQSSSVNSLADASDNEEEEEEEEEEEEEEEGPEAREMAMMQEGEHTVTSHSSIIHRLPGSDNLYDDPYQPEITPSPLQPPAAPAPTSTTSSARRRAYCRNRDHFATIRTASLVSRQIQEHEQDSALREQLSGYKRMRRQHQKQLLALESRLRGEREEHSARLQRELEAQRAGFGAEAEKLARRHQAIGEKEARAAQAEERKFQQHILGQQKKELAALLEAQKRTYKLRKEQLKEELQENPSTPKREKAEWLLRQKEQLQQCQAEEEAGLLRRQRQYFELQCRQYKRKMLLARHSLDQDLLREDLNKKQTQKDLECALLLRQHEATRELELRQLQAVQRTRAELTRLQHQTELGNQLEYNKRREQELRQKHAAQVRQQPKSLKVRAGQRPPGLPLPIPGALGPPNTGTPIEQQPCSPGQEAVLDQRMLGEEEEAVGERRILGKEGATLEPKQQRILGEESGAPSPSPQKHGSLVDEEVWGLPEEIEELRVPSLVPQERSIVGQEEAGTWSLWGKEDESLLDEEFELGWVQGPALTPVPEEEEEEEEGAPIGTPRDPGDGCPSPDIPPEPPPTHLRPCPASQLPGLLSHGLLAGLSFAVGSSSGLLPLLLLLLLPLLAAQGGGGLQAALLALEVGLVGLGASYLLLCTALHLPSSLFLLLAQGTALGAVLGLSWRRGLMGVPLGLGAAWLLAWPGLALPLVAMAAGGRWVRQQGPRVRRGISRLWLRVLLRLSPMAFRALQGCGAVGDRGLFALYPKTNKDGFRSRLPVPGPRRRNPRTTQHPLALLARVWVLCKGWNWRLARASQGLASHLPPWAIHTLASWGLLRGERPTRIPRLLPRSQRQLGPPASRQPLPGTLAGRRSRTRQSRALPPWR

off-target kinases [2] = target: off-target kinases (Homo sapiens, UniProt P06239); conditions: LCK, ZLYTE, ATP Km app
off-target kinases [3] = target: off-target kinases (Homo sapiens, UniProt Q9UEW8); conditions: STK39 (STLK3), LanthaScreen
off-target kinases [4] = target: off-target kinases (Homo sapiens, UniProt Q9Y5S2); conditions: CDC42 BPB (MRCKB), ZLYTE, ATP Km app
off-target kinases [5] = target: off-target kinases (Homo sapiens, UniProt P53667); conditions: LIMK1, LanthaScreen Binding
Sequence of off-target kinases (Homo sapiens, UniProt P53667) (P53667 whole entry): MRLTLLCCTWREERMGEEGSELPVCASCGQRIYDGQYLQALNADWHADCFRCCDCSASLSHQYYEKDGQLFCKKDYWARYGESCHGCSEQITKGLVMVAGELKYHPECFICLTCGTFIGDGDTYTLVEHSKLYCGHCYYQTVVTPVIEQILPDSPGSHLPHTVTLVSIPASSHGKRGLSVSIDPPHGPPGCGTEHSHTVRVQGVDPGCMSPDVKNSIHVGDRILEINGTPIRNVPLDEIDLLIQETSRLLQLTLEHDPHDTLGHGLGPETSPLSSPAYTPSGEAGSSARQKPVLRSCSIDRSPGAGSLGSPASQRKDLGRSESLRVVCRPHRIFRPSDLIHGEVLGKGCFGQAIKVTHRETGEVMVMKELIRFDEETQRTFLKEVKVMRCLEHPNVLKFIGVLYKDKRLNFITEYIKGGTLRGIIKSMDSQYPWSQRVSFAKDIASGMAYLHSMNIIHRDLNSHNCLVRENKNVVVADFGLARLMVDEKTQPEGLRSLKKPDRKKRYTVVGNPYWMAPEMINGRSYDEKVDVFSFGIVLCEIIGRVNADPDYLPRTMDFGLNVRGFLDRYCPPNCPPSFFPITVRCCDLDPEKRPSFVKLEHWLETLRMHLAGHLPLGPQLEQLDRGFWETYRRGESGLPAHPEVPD

Sequence of off-target kinases (Homo sapiens, UniProt P06239) (P06239 whole entry): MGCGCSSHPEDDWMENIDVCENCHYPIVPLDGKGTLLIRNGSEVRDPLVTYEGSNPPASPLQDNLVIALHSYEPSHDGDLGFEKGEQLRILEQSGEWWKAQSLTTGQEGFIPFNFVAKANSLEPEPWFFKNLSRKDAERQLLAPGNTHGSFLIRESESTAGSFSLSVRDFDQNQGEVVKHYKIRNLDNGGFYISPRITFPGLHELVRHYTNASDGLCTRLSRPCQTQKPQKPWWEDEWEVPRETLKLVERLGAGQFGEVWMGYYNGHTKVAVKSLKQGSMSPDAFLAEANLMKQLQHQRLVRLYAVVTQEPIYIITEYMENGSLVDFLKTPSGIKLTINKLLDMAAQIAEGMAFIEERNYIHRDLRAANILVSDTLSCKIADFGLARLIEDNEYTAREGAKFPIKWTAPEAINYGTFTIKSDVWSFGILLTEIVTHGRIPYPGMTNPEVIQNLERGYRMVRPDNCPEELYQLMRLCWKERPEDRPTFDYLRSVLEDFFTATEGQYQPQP
Sequence of off-target kinases (Homo sapiens, UniProt Q9Y5S2) (Q9Y5S2 whole entry): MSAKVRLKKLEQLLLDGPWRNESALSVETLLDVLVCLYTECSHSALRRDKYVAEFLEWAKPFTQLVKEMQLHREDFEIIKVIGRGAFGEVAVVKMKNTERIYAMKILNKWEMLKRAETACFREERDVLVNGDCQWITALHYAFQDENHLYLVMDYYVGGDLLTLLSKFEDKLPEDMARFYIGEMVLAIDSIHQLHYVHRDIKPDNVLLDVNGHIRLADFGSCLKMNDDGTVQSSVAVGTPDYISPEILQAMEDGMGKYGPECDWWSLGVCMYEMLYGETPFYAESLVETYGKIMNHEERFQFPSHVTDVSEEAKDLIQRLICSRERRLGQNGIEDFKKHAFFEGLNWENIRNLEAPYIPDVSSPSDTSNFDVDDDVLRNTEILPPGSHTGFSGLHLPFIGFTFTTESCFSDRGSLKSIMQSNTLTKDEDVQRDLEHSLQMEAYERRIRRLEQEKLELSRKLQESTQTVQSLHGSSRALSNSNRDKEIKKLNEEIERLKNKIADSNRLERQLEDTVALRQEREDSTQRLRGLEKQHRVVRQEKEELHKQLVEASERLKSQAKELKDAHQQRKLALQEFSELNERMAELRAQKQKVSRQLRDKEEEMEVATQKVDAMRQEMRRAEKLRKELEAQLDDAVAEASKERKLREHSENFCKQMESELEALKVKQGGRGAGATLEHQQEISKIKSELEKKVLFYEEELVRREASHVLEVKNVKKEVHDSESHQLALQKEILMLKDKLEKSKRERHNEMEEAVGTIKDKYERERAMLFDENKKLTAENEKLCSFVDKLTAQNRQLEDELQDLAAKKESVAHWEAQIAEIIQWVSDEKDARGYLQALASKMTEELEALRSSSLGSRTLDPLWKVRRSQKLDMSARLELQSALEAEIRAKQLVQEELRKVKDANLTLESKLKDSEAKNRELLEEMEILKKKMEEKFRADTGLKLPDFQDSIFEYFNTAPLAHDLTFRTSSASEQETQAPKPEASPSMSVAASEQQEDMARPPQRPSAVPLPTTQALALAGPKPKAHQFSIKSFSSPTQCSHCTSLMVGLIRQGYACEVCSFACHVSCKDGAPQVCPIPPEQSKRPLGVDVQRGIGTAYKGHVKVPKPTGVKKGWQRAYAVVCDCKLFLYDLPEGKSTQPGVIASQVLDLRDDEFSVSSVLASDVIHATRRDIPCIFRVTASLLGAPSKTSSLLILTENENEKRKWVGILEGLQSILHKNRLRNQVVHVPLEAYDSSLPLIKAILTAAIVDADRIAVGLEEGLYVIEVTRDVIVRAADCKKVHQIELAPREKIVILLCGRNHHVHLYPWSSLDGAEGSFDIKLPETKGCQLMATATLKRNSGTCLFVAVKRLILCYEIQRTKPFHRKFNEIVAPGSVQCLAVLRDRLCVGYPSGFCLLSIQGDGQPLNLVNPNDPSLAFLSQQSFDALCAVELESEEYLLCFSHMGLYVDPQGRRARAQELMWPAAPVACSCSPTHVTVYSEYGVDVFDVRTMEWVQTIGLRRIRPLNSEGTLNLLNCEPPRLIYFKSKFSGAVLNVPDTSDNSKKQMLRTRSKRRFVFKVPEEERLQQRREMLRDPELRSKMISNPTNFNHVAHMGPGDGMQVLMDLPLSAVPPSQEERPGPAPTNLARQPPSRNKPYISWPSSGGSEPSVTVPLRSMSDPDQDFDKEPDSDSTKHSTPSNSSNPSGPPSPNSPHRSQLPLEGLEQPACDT

Which results are given for `N#Cc1cc(-c2ncnc(Nc3ccc(N4CCN(C5COC5)CC4)cc3)n2)ccc1OC1CCOCC1` [Compound 1, 5-(4-((4-(4-(oxetan-3-yl)piperazin-1-yl)phenyl)amino)-1,3,5-triazin-2-yl)-2-((tetrahydro-2H-pyran-4-yl)oxy)benzonitrile]?
inhibition (off-target kinases [1]; read-out: % Inhibition 1): 3%; inhibition (off-target kinases [1]; read-out: % Inhibition 2): 6%; inhibition (off-target kinases [1]; read-out: % Inhibition Avg): 5%; inhibition (off-target kinases [2]; read-out: % Inhibition 1): 41%; inhibition (off-target kinases [2]; read-out: % Inhibition 2): 38%; inhibition (off-target kinases [2]; read-out: % Inhibition Avg): 40%; inhibition (off-target kinases [3]; read-out: % Inhibition 1): 10%; inhibition (off-target kinases [3]; read-out: % Inhibition 2): 9%; inhibition (off-target kinases [3]; read-out: % Inhibition Avg): 10%; inhibition (off-target kinases [4]; read-out: % Inhibition 1): 6%; inhibition (off-target kinases [4]; read-out: % Inhibition 2): 13%; inhibition (off-target kinases [4]; read-out: % Inhibition Avg): 10%; inhibition (off-target kinases [5]; read-out: % Inhibition 1): 40%; inhibition (off-target kinases [5]; read-out: % Inhibition 2): 39%; inhibition (off-target kinases [5]; read-out: % Inhibition Avg): 40%
